Laboratory results from PubChem BioAssay (NCI).
Several values for one entry are separate records, joined by “and”; a condition that tells them apart may be missing. Equal entries are not always repeated.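 All cell lines were grown in 96-well plates and treated with compound for 48 hours. At the GI50, growth is halved. TGI denotes the concentration required for complete inhibition of growth.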

Experiments:
Assay in all cases: NCI anticancer screen, dose series, 48 h
[1] = system: SNB-78 CNS
[2] = system: RXF-631 renal
[3] = system: DMS 114 small cell lung
[4] = system: DLD-1 colon
[5] = system: DMS 273 small cell lung
[6] = system: HOP-18 NSCLC
[7] = system: XF 498 CNS
[8] = system: LXFL 529 NSCLC
[9] = system: MDA-N

SMILES	TGI [1]	TGI [2]	TGI [3]	TGI [4]	TGI [5]	TGI [6]	TGI [7]	TGI [8]	TGI [9]	further results
Cc1cc2cc(Cl)ccc2nc1C(=O)c1ccccc1	> 100 µM	> 100 µM	> 100 µM	> 100 µM	> 100 µM	> 100 µM	> 100 µM	> 100 µM	–	–
COC(=O)CCC(=O)CC(=O)C(=O)Nc1ccc(F)cc1	> 100 µM	–	> 100 µM	> 100 µM	> 100 µM	> 100 µM	–	> 100 µM	–	–
O=C(O)CN(CC(=O)O)Cc1cc2c(cc1O)Oc1cc(O)c(CN(CC(=O)O)CC(=O)O)cc1C21OC(=O)c2ccccc21	–	–	–	–	–	–	–	–	> 100 µM	–
CN(C)c1ccccc1CC(c1c[nH]c2ccccc12)c1c[nH]c2ccccc12	32.5 µM	–	20.4 µM	30.4 µM	27.9 µM	–	31.5 µM	–	–	–
O=C(Nc1ccc(Cl)c(Cl)c1)C(=O)Nn1c(=S)[nH]c2ccccc2c1=O	> 100 µM	–	> 100 µM	> 100 µM	> 100 µM	> 100 µM	> 100 µM	> 100 µM	–	–
Cc1ccccc1N=Cc1ccc(N(CCC#N)S(=O)(=O)c2ccccc2)cc1	> 100 µM	> 100 µM	> 100 µM	> 100 µM	> 100 µM	> 100 µM	> 100 µM	> 100 µM	–	–
Cc1c(/C=N/NC(=O)c2ccccc2)c(=O)n(-c2ccccc2)n1C	> 100 µM	–	> 100 µM	> 100 µM	> 100 µM	> 100 µM	> 100 µM	> 100 µM	–	–
Cn1c(=O)nc2n(-c3ccc(F)cc3)c3ccccc3nc-2c1=O	42.2 µM	–	28.6 µM	62.1 µM	36 µM	> 100 µM	34.3 µM	> 100 µM	–	–
CCOc1cc(C=O)c2c(ccc3ccc(OC)c(OC)c32)c1OC	–	–	–	–	–	–	–	–	> 100 µM	–
Cc1ccc(C2(C)NC(=S)N(NC(N)=S)C2=S)cc1 (stereo not given)	–	> 100 µM	> 100 µM	> 100 µM	> 100 µM	–	> 100 µM	> 100 µM	–	–
COc1ccc2c(CC(=O)O)cc(=O)oc2c1	–	–	–	–	–	–	–	–	> 100 µM	–
C/C(=N\Nc1ccc2ccccc2n1)c1ccccc1O	–	–	–	–	–	–	–	–	> 100 µM	–
Nc1nc(=O)n(C2CC(O)C(O)C(CO)O2)cc1F (stereo not given)	> 100 µM	> 100 µM	> 100 µM	> 100 µM	–	> 100 µM	> 100 µM	> 100 µM	–	–
NC(=O)c1nnn(Cc2cc(Cl)c(C(=O)c3ccc(Cl)cc3)c(Cl)c2)c1N	> 9.09 µM and 52.2 µM	53.9 µM	> 9.09 µM and 23.3 µM	> 9.09 µM and 30.8 µM	> 9.09 µM and 21.2 µM	> 9.09 µM and 36.4 µM	> 9.09 µM and 22.9 µM	> 9.09 µM and 21.1 µM	> 46.9 µM	GI50 [1]: 19 µM; GI50 [3]: 3.36 µM; GI50 [4]: 12.7 µM; GI50 [5]: 5.77 µM; GI50 [6]: 21.7 µM; GI50 [7]: 10.8 µM
COCC1C(=O)c2cc3c(cc2C12C=CC1(C=C2)OCCO1)OCO3 (stereo not given)	–	27.7 µM	11.6 µM	6.5 µM	29.9 µM	–	17.9 µM	9.82 µM	–	–
SC[C@@H]1COC[C@H](CS)S1	–	–	–	–	–	–	–	–	> 100 µM	–
COC(=O)NNc1c([N+](=O)[O-])cnn(-c2ccccc2)c1=O	–	3.88 µM	13.8 µM	3.91 µM	4 µM	6.28 µM	–	3.16 µM	4.79 µM	–
O=C(O)CNC(=O)c1ccccc1O	–	–	–	–	–	–	–	–	> 100 µM	–
CN(C)c1ccc(/C=C/C(=O)c2ccccc2)cc1Br	–	–	36.9 µM	35.6 µM	–	–	31.2 µM	28.8 µM	–	–
COc1ccc(NC(=O)CC/C(CC(=O)c2ccccc2Cl)=N\Nc2nnc(C)n2N)cc1	> 100 µM	> 100 µM	> 100 µM	> 100 µM	> 100 µM	> 100 µM	–	> 100 µM	–	–
COc1ccc(C(=O)/C(=N/Nc2ccccc2)c2ccc(OC)cc2)cc1	> 100 µM	> 100 µM	> 100 µM	> 100 µM	> 100 µM	> 100 µM	> 100 µM	> 100 µM	–	–

SMILES	TGI [1]	TGI [2]	TGI [3]	TGI [4]	TGI [5]	TGI [6]	TGI [7]	TGI [8]	TGI [9]	further results
O=C(c1ccccn1)c1nnn2ccccc12	–	–	–	–	–	–	–	–	> 100 µM	–
CCOC(=O)NC(=O)c1cn(CCCCCOC(=O)NCCCCCCNC(=O)OCCCCCn2cc(C(=O)NC(=O)OCC)c(=O)[nH]c2=O)c(=O)[nH]c1=O	> 100 µM	–	> 100 µM	> 100 µM	> 100 µM	> 100 µM	–	> 100 µM	–	–
O=C1NC2OCC(O)C(O1)C2O (stereo not given)	> 100 µM	> 100 µM	> 100 µM	> 100 µM	> 100 µM	> 100 µM	> 100 µM	> 100 µM	–	–
Cc1cc(Cl)ccc1NC(=O)/C(Cl)=C(/Cl)C(=O)O	–	–	–	–	–	–	–	–	60.9 µM	–
CSC(=S)N/N=C/c1ccccc1	–	–	–	–	–	–	–	–	> 100 µM	–
O=C(Nc1ccc(Cl)c(Cl)c1)C(=O)C(C1OC(=O)c2ccccc21)[N+](=O)[O-] (stereo not given)	–	–	–	–	–	–	–	–	> 100 µM	–
CNc1nnnn1C1OC(CO)C(O)C1O (stereo not given)	> 100 µM	> 100 µM	> 100 µM	> 100 µM	> 100 µM	–	83.4 µM	> 100 µM	–	–
CC1(C)CC(=O)C(CC(C(=O)C(=O)Nc2cc(C(F)(F)F)ccc2Cl)C(=O)c2ccco2)C(=O)C1 (stereo not given)	–	–	–	–	–	–	–	–	> 100 µM	–
O=C1CSC(=S)N1c1ccc(F)cc1F	–	–	–	–	–	–	–	–	> 100 µM	–
O=C1OC(c2ccccc2)C2CC3CC4(CCC3CN12)OCCO4 (stereo not given)	> 100 µM	> 100 µM	–	–	> 100 µM	–	> 100 µM	> 100 µM	–	–
O=C(CC1(O)C(=O)Nc2c(Cl)cccc21)c1ccccc1 (stereo not given)	> 100 µM	–	> 100 µM	> 100 µM	> 100 µM	> 100 µM	> 100 µM	> 100 µM	–	–
O=C1C(c2ccc([N+](=O)[O-])cc2)=[N+]([O-])c2ccccc21	61.1 µM	–	27.1 µM	> 100 µM	–	26.5 µM	–	> 100 µM	–	–
Cc1cc2c(cc1C)N1Cc3c(ccc(C)c3C)N(C2)C1 (tested in a mixture with another compound)	> 100 µM	–	> 100 µM	> 100 µM	> 100 µM	> 100 µM	> 100 µM	> 100 µM	–	–
COc1ccc(C(=O)C(c2ccc(OC)cc2)C2C(=O)Oc3ccccc32)cc1 (stereo not given)	> 100 µM	–	> 100 µM	> 100 µM	> 100 µM	> 100 µM	> 100 µM	> 100 µM	–	GI50 [3]: > 100 µM; GI50 [4]: > 100 µM; GI50 [5]: > 100 µM; GI50 [7]: > 100 µM; GI50 [8]: > 100 µM
COc1c(OC(C)=O)c(OC(C)=O)cc2c1-c1ccc(OC)c(=O)cc1C(NC(C)=O)CC2 (stereo not given)	> 100 µM	18.2 µM	0.121 µM	> 100 µM	–	> 100 µM	16.2 µM	> 53 µM	–	–
CC1(C)CC(=O)C(C(c2cccc(O)c2O)C2C(=O)CC(C)(C)CC2=O)C(=O)C1	–	–	–	–	–	–	–	–	> 100 µM	–
O=S(=O)(O)c1ccc(Cl)cc1.[Cd]	–	–	–	–	–	–	–	–	68.9 µM	GI50 [9]: 22.1 µM
N#Cc1ccc(/C=N\N2C(=O)c3ccccc3C2=O)cc1	> 100 µM	–	> 100 µM	> 100 µM	> 100 µM	> 100 µM	> 100 µM	> 100 µM	–	–
O=c1oc2c3ccc4ccccc4c3n(CCN3CCOCC3)c2c2ccccc12	–	–	> 100 µM	> 100 µM	–	> 100 µM	–	> 100 µM	–	–
O=c1cc2n(c(=O)[nH]1)C1OC(C(O)C1O)[C@H]2CCO (stereo not given in full)	> 100 µM	–	> 100 µM	> 100 µM	> 100 µM	–	–	> 100 µM	–	–
CC1(C)CC(=O)C2=C(C1)NC(SSC1=C(C#N)C(c3ccc(Br)cc3)C3=C(CC(C)(C)CC3=O)N1)=C(C#N)C2c1ccc(Br)cc1 (stereo not given)	–	–	–	–	–	–	–	–	> 100 µM and 150 µg/mL	GI50 [9]: 45.9 µg/mL
